Assay results from patent publication US8143408B2, “N-(8-heteroaryltetrahydronaphtalene-2yl) or N-(5-heteroarylchromane-3-yl) carboxamide derivatives for the treatment of pain” (AstraZeneca AB, priority 2007, dated 2012).

Target: T1, Nav1.7 voltage-gated sodium channel (Homo sapiens, UniProt Q15858)
T1 construct: Gene(s) encoding the full-length protein of the voltage-gated sodium channel of interest are cloned and expressed; expressed in transfected cells
Test: Whole-cell voltage clamp electrophysiology assay
Assay type: cell-based
Settings: cells stably expressing the voltage-gated sodium channel of interest
Method in brief: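 Cells expressing full-length channel, exposed to drug by integrated pipetting on automated patch-clamp platforms or by microperfusion in conventional whole-cell patch clamp. Channels activated by a voltage protocol depolarising from a defined holding potential; buffers per platform manufacturer.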

T1 sequence (Q15858 whole entry): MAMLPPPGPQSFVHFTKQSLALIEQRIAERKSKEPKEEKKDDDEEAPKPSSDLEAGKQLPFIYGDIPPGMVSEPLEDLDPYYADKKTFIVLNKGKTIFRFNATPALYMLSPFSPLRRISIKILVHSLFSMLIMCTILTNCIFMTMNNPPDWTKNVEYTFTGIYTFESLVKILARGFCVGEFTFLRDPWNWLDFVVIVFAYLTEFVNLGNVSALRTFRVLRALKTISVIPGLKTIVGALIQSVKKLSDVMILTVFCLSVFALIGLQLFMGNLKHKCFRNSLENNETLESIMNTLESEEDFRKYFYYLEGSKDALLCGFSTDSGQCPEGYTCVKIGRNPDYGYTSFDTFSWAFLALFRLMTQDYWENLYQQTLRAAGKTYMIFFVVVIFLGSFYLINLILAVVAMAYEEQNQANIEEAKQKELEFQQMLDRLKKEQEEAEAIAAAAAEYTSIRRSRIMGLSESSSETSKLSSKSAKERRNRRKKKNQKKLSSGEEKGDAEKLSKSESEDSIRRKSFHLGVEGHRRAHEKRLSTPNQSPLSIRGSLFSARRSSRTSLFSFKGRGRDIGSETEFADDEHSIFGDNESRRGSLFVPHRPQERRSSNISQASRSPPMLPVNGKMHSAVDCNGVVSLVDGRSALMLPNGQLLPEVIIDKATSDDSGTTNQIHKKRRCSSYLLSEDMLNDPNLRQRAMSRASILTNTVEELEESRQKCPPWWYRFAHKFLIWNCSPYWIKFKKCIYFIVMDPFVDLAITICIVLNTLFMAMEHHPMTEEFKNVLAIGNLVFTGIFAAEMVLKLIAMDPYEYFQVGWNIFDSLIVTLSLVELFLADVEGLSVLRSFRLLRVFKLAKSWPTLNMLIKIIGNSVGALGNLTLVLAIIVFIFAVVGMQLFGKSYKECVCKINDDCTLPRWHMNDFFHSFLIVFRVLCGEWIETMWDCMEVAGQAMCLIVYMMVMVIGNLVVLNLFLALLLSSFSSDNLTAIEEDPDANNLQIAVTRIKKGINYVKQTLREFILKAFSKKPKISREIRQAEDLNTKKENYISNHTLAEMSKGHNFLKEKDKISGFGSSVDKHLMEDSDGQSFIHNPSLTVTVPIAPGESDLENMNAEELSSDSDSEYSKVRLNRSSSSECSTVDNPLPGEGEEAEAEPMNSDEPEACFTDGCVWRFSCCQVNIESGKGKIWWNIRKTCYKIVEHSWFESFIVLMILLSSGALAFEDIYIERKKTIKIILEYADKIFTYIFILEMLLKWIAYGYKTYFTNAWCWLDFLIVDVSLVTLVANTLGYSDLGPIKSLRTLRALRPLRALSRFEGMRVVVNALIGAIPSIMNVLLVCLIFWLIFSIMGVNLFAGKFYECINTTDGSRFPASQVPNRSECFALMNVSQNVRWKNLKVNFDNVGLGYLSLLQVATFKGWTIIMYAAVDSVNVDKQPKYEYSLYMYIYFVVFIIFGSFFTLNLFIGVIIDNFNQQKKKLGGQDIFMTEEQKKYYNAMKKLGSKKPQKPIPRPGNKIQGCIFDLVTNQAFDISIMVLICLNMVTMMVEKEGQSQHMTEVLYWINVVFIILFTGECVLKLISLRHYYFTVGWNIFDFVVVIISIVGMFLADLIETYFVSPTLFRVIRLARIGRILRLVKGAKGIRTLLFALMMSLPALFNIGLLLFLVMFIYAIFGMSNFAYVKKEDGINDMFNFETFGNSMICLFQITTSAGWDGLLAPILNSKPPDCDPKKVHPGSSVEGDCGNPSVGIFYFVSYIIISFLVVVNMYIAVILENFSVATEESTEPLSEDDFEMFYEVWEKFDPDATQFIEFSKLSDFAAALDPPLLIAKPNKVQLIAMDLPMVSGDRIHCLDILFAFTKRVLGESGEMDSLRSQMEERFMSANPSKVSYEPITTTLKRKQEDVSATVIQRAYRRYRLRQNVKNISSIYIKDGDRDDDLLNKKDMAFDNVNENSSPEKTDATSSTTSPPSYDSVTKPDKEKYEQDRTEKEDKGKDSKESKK

IC50 | SMILES
631 nM | COc1ncc(-c2cccc3c2C[C@H](NC(=O)c2ccc(C(=O)N(C)CC(F)(F)F)nc2)CO3)cc1F [Example 192, N^5-[(3S)-5-(5-fluoro-6-methoxypyridin-3-yl)-3,4-dihydro-2H-chromen-3-yl]-N^2-methyl-N^2-(2,2,2-trifluoroethyl)pyridine-2,5-dicarboxamide]
158 nM | COc1ncc(-c2cccc3c2C[C@H](NC(=O)c2ccc(COCC(F)(F)F)nc2)CO3)cc1F [Example 193, N-[(3S)-5-(5-fluoro-6-methoxypyridin-3-yl)-3,4-dihydro-2H-chromen-3-yl]-6-[(2,2,2-trifluoroethoxy)methyl]nicotinamide]
200 nM | COc1ncc(-c2cccc3c2C[C@H](NC(=O)c2ccc(COCC(F)(F)F)nc2)CO3)cn1 [Example 194, N-[(3S)-5-(2-methoxypyrimidin-5-yl)-3,4-dihydro-2H-chromen-3-yl]-6-[(2,2,2-trifluoroethoxy)methyl]nicotinamide]
398 nM | COc1ncc(-c2cccc3c2C[C@H](NC(=O)c2cnc(NCCC(F)(F)F)nc2)CO3)cn1 [Example 195, N-[(3S)-5-(2-methoxypyrimidin-5-yl)-3,4-dihydro-2H-chromen-3-yl]-2-[(3,3,3-trifluoropropyl)amino]pyrimidine-5-carboxamide]
501 nM | CN(CC(F)(F)F)C(=O)c1ccc(C(=O)N[C@@H]2COc3cccc(-c4cnc(C5CC5)nc4)c3C2)cn1 [Example 196, N^5-[(3S)-5-(2-cyclopropylpyrimidin-5-yl)-3,4-dihydro-2H-chromen-3-yl]-N^2-methyl-N^2-(2,2,2-trifluoroethyl)pyridine-2,5-dicarboxamide]
158 nM | O=C(N[C@@H]1COc2cccc(-c3cnc(C4CC4)nc3)c2C1)c1ccc(C(=O)NCCC(F)(F)F)nc1 [Example 197, N^5-[(3S)-5-(2-cyclopropylpyrimidin-5-yl)-3,4-dihydro-2H-chromen-3-yl]-N^2-(3,3,3-trifluoropropyl)pyridine-2,5-dicarboxamide]
501 nM | CN(CCC(F)(F)F)C(=O)c1ccc(C(=O)N[C@@H]2COc3cccc(-c4cnc(C5CC5)nc4)c3C2)cn1 [Example 198, N^5-[(3S)-5-(2-cyclopropylpyrimidin-5-yl)-3,4-dihydro-2H-chromen-3-yl]-N^2-methyl-N^2-(3,3,3-trifluoropropyl)pyridine-2,5-dicarboxamide]
501 nM | O=C(N[C@@H]1COc2cccc(-c3cnc(C4CC4)nc3)c2C1)c1ccn(CCC(F)(F)F)c(=O)c1 [Example 199, N-[(3S)-5-(2-cyclopropylpyrimidin-5-yl)-3,4-dihydro-2H-chromen-3-yl]-2-oxo-1-(3,3,3-trifluoropropyl)-1,2-dihydropyridine-4-carboxamide]
316 nM | COc1ncc(-c2cccc3c2C[C@H](NC(=O)c2cnc(NCCC(F)(F)F)nc2)CO3)cc1F [Example 200, N-[(3S)-5-(5-fluoro-6-methoxypyridin-3-yl)-3,4-dihydro-2H-chromen-3-yl]-2-[(3,3,3-trifluoropropyl)amino]pyrimidine-5-carboxamide]
398 nM | Cc1ncc(-c2cccc3c2C[C@H](NC(=O)c2cnc(NCCC(F)(F)F)nc2)CO3)cn1 [Example 201, N-[(3S)-5-(2-methylpyrimidin-5-yl)-3,4-dihydro-2H-chromen-3-yl]-2-[(3,3,3-trifluoropropyl)amino]pyrimidine-5-carboxamide]
794 nM | Cc1cnc(-c2cccc3c2C[C@H](NC(=O)c2ccc(OCCOCC(F)(F)F)nc2)CO3)c(C)n1 [Example 202, N-[(3S)-5-(3,5-dimethylpyrazin-2-yl)-3,4-dihydro-2H-chromen-3-yl]-6-[2-(2,2,2-trifluoroethoxy)ethoxy]nicotinamide]
200 nM | Cc1ncc(-c2cccc3c2C[C@H](NC(=O)c2ccc(COCC(F)(F)F)nc2)CO3)cn1 [Example 203, N-[(3S)-5-(2-methylpyrimidin-5-yl)-3,4-dihydro-2H-chromen-3-yl]-6-[(2,2,2-trifluoroethoxy)methyl]nicotinamide]
7940 nM | COc1ncc(-c2cccc3c2C[C@H](NC(=O)c2ccc(OC4CCOCC4)nc2)CO3)cc1C(=O)N(C)C [Example 204, 2-methoxy-N,N-dimethyl-5-[(3S)-3-({[6-(tetrahydro-2H-pyran-4-yloxy)pyridin-3-yl]carbonyl}amino)-3,4-dihydro-2H-chromen-5-yl]nicotinamide]
1260 nM | CNC(=O)c1cc(-c2cccc3c2C[C@H](NC(=O)c2ccc(OC(C)C)nc2)CO3)cnc1OC [Example 205, 5-[(3S)-3-{[(6-isopropoxypyridin-3-yl)carbonyl]amino}-3,4-dihydro-2H-chromen-5-yl]-2-methoxy-N-methylnicotinamide]
3160 nM | CNC(=O)c1cc(-c2cccc3c2C[C@H](NC(=O)c2ccc(OC4CCOCC4)nc2)CO3)cnc1OC [Example 206, 2-methoxy-N-methyl-5-[(3S)-3-({[6-(tetrahydro-2H-pyran-4-yloxy)pyridin-3-yl]carbonyl}amino)-3,4-dihydro-2H-chromen-5-yl]nicotinamide]
3980 nM | COc1ncc(-c2cccc3c2C[C@H](NC(=O)c2ccc(OC(C)C)nc2)CO3)cc1C(=O)N(C)C [Example 207, 5-[(3S)-3-{[(6-isopropoxypyridin-3-yl)carbonyl]amino}-3,4-dihydro-2H-chromen-5-yl]-2-methoxy-N,N-dimethylnicotinamide]
1580 nM | COc1ncc(-c2cccc3c2C[C@H](NC(=O)c2ccc(OCC(F)(F)F)nc2)CO3)cc1C(=O)N(C)C [Example 208, 2-methoxy-N,N-dimethyl-5-[(3S)-3-({[6-(2,2,2-trifluoroethoxy)pyridin-3-yl]carbonyl}amino)-3,4-dihydro-2H-chromen-5-yl]nicotinamide]
7940 nM | CN(C)C(=O)c1ncc(-c2cccc3c2C[C@H](NC(=O)c2ccc(OCCOCC(F)(F)F)nc2)CO3)cn1 [Example 209, N,N-dimethyl-5-{(3S)-3-[({6-[2-(2,2,2-trifluoroethoxy)ethoxy]pyridin-3-yl}carbonyl)amino]-3,4-dihydro-2H-chromen-5-yl}pyrimidine-2-carboxamide]
100 nM | O=C(N[C@@H]1COc2cccc(-c3ccc(CO)nc3)c2C1)c1ccc(OCCOCC(F)(F)F)nc1 [Example 210, N-{(3S)-5-[6-(hydroxymethyl)pyridin-3-yl]-3,4-dihydro-2H-chromen-3-yl}-6-[2-(2,2,2-trifluoroethoxy)ethoxy]nicotinamide]
200 nM | O=C(N[C@@H]1COc2cccc(-c3ccc(CO)nc3)c2C1)c1ccc(OCCCF)nc1 [Example 211, 6-(3-fluoropropoxy)-N-{(3S)-5-[6-(hydroxymethyl)pyridin-3-yl]-3,4-dihydro-2H-chromen-3-yl}nicotinamide]
100 nM | O=C(N[C@@H]1COc2cccc(-c3ccc(CO)nc3)c2C1)c1ccc(OCC(F)(F)F)nc1 [Example 212, N-{(3S)-5-[6-(hydroxymethyl)pyridin-3-yl]-3,4-dihydro-2H-chromen-3-yl}-6-(2,2,2-trifluoroethoxy)nicotinamide]
316 nM | O=C(N[C@@H]1COc2cccc(-c3cnc(CO)cn3)c2C1)c1ccc(OCCOCC(F)(F)F)nc1 [Example 213, N-{(3S)-5-[5-(hydroxymethyl)pyrazin-2-yl]-3,4-dihydro-2H-chromen-3-yl}-6-[2-(2,2,2-trifluoroethoxy)ethoxy]nicotinamide]
